Results reported in patent US9540615B2, “Combined chemical and genetic approaches for generation of induced pluripotent stem cells” (The Scripps Research Institute, priority 2008, dated 2017).

Key:
Assay type in all cases: cell-based, mouse
[1] = system: 129 MEFs transduced with OK (Oct4 and Klf4); test: Screen for iPSC generation from OK-transduced 129 MEFs (ESC-like colony morphology, ALP staining)
Experimental: Unmodified MEFs derived from E13-14 embryos of the 129 mice were used for the initial screen. MEFs were plated on Matrigel at 3.5×10^4 cells/well of a 6-well plate and transduced with OK (retroviral vectors expressing Oct4 and Klf4) alone. Within 14-21 days, treated cells were assessed for the appearance of colonies that had the characteristic embryonic stem cell (ESC), colony morphology and were positive for the pluripotency marker alkaline phosphatase (ALP). Such OK-transduced cells generated only a few small non-compact colonies, which were weakly positive for ALP expression. These colonies initially appeared within 21 days after viral transduction and were difficult to expand. Therefore, such assay system offered a clean background for the identification of small molecules having desirable reprogramming inducing activity. Using this system, compounds from a library of around 2000 known small molecules (see Experimental Procedures below) were screened and were identified as hits when they induced the appearance of ESC colonies that were strongly positive for ALP within 14-21 days after treatment. This image-based method provided a more accurate assessment of reprogramming as compared to homogenous reporter-based assay. BIX appeared to have the strongest effect with reproducible induction of more than 1-2 compact ESC-like colonies with high ALP expression. We observed that when MEFs were treated with BIX after OK viral transduction, compact colonies with strong ALP expression could be readily detected within approximately 14-21 days. These cells were also positive for Nanog, Oct4 and SSEA-1 expression. […] However, the reprogramming efficiency in MEFs transduced with OK and treated with BIX was still low, about 2 colonies/3.5×10^4 cells, in comparison to the four factor-induced reprogramming of MEFs or the OK/BIX NPC reprogramming (Shi, Y. et al., Cell Stem Cell, 2:525-528 (2008)). Therefore, we conducted a second screen using a similar protocol, but where BIX was added to the basal media after OK viral transduction. This provided a more permissive platform to identify new small molecules that could further improve reprogramming efficiency. More importantly, this second screen could facilitate discovery of small molecules that impact reprogramming in a more specific manner, for example by acting on signal transduction pathways rather than on histone or DNA modifying enzymes. In this second screen, we again assayed the library of around 2000 known small molecules (see Experimental Procedures), and confirmed two compounds that were able to act in a synergistic manner with BIX to improve reprogramming based on the criteria of the screen. […] Therefore, RG108 was not pursued further for this study. […]

mES R1 cells = test: Proliferation assay; settings: 2 μM BayK, 1 μM BIX or both; 15, 24 and 48 hours; compared to DMSO, n=3
Experimental: mES R1 cells were plated onto gelatin-coated 6-well plates at a density of 2×10^5 cells/well in complete mES cell media. Upon cell attachment, app. 12 hours, the cells were treated either with DMSO, 1 μM BIX, 2 μM BayK, and a combination of both, in triplicate. At 15, 24 and 48 hours, the cells were detached using trypsin, and counted using a hemocytometer. Trypan blue (Sigma-Aldrich, St. Louis, Mo.) was used for dead cell exclusion.

[2] = system: OG2 MEFs transduced with OK (Oct4 and Klf4); test: iPSC generation from OK-transduced OG2 MEFs (GFP+ colonies), including second synergist screen with BIX; settings: OK transduced OG2 MEFs; 3 independent experiments, standard deviation; OK alone 0.5±0.7
Experimental: Primary 129S2/SvPasCrlf (primary screen) or ROSA26^+/−/OG2^+/− (secondary screen) MEFs were plated onto Matrigel (1:50; BD Biosciences, Bedford, Mass.) coated dishes at a density of 3.5×10^4 cells per well of a 6-well plate. Twenty-four hours later, these cells were transduced overnight with defined retroviruses at 37° C., 5% CO2. Twelve to fourteen hours later, the media on the transduced cells was changed to mESC medium [Knockout DMEM, 10% ES-qualified FBS, 10% Knockout serum replacement, 1% Glutamax, 1% Non-essential amino acids, penicillin/streptomycin, 0.1 mM β-mercaptoethanol, 1% EmbryoMax ESC Qualified Nucleosides (Millipore, Temecula, Calif.), and 10^3 U/ml LIF (Millipore)] (all products were from Invitrogen, Carlsbad, Calif., except where mentioned). On that same day, individual small molecules from our known drug collection were added to the cells at a range between 0.5 and 2 μM. Compound treatment was continued for 10-14 days; the cells were fixed and stained on day 14-21 using a standard ALP detection kit (Millipore). For the second screen, 1 μM BIX was added to the mESC medium 1 day after transduction. Five days later, in addition to 1 μM BIX, individual small molecule from the known drug collection was added to each well, at a range between 0.5 and 2 μM. Mouse ESC media with defined small molecules was refreshed every three days until colonies with a similar morphology to mESCs were observed, which was usually between 14-21 days after transduction. […] Further characterization studies and repeats were carried either on primary 129S2/SvPasCrlf or ROSA26^+/−/OG2^+/− MEFs. When ROSA26^+/−/OG2^+/− MEFs were used, the iPSC colonies could also be identified through GFP expression, as a marker of Oct4 expression. Once iPSC colonies were identified, they were picked for expansion on MEF feeder cells in mESC medium.

For `COc1cc2nc(N3CCCN(C)CC3)nc(NC3CCN(Cc4ccccc4)CC3)c2cc1OC` [BIX01294], the reprogramming efficiency ([1]; MEFs transduced with OK and treated with compound) was “about 2 colonies/3.5×10^4 cells”, the “number of ALP+ colonies that closely resemble the mESC morphology” value ([1]; OK-transduced MEFs) was “about 2 colonies” and the “induction of compact ESC-like colonies with high ALP expression” value ([1]; primary screen, compounds 0.5-2 μM, 14-21 days, 3.5×10^4 cells/well) was 1-2 colonies. For the same molecule, the “proliferation of mES cells (cell number)” value (mES R1 cells) was “No significant difference” and the “number of GFP+ colonies (reprogramming efficiency)” value [2] was 2.5±0.7 colonies per 3.5×10^4 cells.
